We go through 22 molecules from ChEMBL document CHEMBL5291721, “A preclinical secondary pharmacology resource illuminates target-adverse drug reaction associations of marketed drugs” (Nat Commun, 2023).

Among the targets are Adenosine receptor A2a (Homo sapiens, UniProt P29274); Melanocortin receptor 3 (Homo sapiens, UniProt P41968); Mu-type opioid receptor (Homo sapiens, UniProt P35372).
Assay [1] has as its target T1, Alpha-2A adrenergic receptor (Homo sapiens, UniProt P08913).
T1 sequence (P08913 whole entry): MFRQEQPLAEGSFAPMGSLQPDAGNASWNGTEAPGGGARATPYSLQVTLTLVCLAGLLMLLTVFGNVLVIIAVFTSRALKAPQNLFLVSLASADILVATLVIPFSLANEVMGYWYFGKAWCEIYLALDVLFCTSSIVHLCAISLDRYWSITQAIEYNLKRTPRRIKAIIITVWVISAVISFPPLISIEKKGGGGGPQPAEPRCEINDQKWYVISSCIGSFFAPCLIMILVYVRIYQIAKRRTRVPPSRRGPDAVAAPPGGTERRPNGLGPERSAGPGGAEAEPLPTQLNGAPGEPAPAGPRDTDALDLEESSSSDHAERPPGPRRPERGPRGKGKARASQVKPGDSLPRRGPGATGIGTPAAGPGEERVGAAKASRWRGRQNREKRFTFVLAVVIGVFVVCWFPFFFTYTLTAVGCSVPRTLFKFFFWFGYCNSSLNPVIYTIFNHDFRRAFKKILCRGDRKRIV
It counts as functional, cell-based.

For assay [2], the target named is T2, 5-hydroxytryptamine receptor 2B (Homo sapiens, UniProt P41595). It counts as functional, cell-based.
T2 sequence (P41595 whole entry): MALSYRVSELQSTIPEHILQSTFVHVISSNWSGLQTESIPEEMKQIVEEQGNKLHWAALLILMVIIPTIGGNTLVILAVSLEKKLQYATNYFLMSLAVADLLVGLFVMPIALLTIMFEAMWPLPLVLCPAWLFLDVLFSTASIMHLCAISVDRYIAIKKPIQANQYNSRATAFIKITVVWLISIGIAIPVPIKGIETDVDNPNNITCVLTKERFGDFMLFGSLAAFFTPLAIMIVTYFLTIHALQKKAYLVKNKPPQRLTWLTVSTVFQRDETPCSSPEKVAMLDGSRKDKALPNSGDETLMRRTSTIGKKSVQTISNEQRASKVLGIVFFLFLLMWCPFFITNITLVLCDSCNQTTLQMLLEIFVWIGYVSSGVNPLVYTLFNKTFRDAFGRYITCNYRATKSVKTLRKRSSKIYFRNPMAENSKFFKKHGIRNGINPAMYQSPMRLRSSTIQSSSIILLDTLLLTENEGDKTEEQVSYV
Assay [3] addresses 3',5'-cyclic-AMP phosphodiesterase 4D (Homo sapiens, UniProt Q08499). It counts as functional.
Assay [4] addresses cGMP-inhibited 3',5'-cyclic phosphodiesterase 3A (Homo sapiens, UniProt Q14432). It counts as functional.
The next assay has as its target Acetylcholinesterase (Homo sapiens, UniProt P22303). It counts as functional.
The target of assay [5] is T3, 5-hydroxytryptamine receptor 1A (Homo sapiens, UniProt P08908).
T3 sequence (P08908 whole entry): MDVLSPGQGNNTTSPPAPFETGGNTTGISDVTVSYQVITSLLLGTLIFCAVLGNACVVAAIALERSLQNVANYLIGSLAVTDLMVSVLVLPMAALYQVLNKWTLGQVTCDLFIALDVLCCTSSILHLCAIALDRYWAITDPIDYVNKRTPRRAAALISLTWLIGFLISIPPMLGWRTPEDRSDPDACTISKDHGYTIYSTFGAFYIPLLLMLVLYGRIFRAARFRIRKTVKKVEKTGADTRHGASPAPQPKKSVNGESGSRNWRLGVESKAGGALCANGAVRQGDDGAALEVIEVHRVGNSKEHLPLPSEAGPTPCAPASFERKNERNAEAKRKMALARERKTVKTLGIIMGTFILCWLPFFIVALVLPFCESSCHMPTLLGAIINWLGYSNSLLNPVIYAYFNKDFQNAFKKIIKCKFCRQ

Assay [6] has as its target T2, 5-hydroxytryptamine receptor 2B. It counts as functional, cell-based. The source holds these as a separate data set.
Assay [7] concerns the target Vascular endothelial growth factor receptor 2 (Homo sapiens, UniProt P35968). It counts as functional.
The target in assay [8] is Sodium-dependent dopamine transporter (Homo sapiens, UniProt Q01959).
Sequence of Sodium-dependent dopamine transporter (Q01959 whole entry): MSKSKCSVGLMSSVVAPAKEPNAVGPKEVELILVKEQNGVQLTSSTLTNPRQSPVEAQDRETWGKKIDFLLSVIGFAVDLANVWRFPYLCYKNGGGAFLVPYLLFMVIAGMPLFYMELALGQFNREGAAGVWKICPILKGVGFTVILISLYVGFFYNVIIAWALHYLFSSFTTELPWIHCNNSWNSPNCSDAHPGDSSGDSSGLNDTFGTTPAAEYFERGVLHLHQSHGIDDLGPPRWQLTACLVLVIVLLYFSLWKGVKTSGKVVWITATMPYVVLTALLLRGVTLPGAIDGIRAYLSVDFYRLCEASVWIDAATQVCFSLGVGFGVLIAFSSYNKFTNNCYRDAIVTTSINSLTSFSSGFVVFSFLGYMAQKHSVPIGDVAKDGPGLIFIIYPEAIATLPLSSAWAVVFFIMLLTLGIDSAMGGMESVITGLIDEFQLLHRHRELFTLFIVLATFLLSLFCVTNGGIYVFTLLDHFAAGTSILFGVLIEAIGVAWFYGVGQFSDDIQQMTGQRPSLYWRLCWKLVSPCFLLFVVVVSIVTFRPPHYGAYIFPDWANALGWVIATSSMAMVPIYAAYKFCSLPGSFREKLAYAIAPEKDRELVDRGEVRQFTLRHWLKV
In assay [9] the target is T4, Alpha-1A adrenergic receptor (Homo sapiens, UniProt P35348).
T4 sequence (P35348 whole entry): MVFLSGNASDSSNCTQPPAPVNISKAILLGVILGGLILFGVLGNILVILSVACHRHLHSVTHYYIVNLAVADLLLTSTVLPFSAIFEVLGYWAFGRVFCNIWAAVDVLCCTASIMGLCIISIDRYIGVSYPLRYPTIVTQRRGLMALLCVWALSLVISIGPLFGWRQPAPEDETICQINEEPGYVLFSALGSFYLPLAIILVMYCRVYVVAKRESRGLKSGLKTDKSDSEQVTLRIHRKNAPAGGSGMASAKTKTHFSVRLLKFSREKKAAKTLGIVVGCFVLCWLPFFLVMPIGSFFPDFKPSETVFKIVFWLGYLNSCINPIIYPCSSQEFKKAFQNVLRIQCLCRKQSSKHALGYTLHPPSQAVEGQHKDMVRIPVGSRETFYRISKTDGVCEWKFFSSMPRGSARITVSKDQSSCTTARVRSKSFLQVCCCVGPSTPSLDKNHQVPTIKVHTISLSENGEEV
It counts as functional, cell-based.

By AC50 is commonly meant the midpoint of the concentration-response curve, whichever way the signal moves. The low end stands for greater potency, the high end for weaker potency.
Note: assay procedure not described here.

Sequence of 3',5'-cyclic-AMP phosphodiesterase 4D (Q08499 whole entry): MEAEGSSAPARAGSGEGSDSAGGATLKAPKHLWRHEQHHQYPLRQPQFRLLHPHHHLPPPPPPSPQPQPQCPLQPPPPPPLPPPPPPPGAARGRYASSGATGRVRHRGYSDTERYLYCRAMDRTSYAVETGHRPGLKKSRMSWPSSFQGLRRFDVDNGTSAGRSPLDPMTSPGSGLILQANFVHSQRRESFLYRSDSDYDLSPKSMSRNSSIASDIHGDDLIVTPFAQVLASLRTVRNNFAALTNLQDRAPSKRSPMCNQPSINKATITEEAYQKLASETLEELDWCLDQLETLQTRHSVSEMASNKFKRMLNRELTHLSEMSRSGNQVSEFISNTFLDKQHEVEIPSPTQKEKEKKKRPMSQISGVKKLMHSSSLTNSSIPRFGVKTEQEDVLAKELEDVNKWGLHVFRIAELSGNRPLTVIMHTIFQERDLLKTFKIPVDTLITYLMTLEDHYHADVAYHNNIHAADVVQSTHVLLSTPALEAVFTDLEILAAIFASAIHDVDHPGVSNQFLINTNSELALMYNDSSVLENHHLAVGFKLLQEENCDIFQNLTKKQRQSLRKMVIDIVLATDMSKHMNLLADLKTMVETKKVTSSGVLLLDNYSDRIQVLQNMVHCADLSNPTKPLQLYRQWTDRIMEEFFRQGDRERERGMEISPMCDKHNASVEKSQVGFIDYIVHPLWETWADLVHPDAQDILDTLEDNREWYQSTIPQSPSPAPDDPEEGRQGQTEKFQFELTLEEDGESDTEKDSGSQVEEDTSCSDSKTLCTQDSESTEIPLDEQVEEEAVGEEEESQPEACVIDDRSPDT
Sequence of Melanocortin receptor 3 (P41968 whole entry): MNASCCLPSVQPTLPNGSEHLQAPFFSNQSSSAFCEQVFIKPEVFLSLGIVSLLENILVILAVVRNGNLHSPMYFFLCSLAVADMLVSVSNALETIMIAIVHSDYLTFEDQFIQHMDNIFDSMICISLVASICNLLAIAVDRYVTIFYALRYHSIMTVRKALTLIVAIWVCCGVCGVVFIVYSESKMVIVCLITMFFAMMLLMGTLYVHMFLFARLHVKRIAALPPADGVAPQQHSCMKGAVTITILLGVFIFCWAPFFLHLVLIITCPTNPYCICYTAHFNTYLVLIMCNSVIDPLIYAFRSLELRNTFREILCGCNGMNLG
Sequence of Acetylcholinesterase (P22303 whole entry): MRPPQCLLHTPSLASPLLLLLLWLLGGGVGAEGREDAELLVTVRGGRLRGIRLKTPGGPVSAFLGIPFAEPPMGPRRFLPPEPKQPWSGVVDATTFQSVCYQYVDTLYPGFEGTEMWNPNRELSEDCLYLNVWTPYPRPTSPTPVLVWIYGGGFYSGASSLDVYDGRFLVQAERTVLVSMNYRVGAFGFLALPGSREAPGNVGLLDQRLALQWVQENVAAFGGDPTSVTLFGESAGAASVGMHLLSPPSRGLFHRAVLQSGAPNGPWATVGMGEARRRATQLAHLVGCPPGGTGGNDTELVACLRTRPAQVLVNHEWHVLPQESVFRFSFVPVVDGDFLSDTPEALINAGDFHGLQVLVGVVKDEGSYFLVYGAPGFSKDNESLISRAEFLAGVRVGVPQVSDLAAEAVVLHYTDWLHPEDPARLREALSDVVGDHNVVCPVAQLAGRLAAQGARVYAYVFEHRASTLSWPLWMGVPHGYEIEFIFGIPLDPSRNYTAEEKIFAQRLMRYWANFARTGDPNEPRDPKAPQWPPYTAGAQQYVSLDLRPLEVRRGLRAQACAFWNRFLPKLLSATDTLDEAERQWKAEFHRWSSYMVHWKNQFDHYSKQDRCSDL
Sequence of cGMP-inhibited 3',5'-cyclic phosphodiesterase 3A (Q14432 whole entry): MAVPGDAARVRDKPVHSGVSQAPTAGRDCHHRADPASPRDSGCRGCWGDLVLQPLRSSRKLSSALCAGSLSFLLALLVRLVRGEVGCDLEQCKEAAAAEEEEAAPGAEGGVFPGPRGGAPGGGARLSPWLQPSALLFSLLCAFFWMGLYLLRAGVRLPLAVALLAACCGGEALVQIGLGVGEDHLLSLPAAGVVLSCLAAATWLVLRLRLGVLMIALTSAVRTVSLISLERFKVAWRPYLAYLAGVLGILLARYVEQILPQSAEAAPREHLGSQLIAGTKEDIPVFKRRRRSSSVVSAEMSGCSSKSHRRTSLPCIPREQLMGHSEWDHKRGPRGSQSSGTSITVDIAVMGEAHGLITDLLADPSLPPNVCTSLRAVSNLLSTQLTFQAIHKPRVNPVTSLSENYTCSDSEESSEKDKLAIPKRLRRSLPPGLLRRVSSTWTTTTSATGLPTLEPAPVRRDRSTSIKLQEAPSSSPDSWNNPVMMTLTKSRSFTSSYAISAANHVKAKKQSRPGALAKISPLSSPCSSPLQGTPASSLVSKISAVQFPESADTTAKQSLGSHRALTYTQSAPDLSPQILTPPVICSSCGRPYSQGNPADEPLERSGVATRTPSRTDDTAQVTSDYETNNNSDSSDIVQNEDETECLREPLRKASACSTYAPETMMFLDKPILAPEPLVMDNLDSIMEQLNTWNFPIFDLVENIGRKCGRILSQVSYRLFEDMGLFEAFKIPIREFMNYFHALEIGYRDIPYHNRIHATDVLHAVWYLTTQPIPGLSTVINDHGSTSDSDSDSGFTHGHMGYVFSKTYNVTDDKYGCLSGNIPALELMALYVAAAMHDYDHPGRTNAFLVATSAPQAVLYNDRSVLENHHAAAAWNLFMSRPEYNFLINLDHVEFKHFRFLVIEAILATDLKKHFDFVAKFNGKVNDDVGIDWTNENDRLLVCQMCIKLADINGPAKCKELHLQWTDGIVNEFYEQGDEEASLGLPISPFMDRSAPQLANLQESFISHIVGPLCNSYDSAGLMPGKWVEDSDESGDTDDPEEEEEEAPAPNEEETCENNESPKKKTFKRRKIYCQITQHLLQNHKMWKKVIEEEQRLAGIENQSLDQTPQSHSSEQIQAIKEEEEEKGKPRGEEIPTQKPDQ
Sequence of Adenosine receptor A2a (P29274 whole entry): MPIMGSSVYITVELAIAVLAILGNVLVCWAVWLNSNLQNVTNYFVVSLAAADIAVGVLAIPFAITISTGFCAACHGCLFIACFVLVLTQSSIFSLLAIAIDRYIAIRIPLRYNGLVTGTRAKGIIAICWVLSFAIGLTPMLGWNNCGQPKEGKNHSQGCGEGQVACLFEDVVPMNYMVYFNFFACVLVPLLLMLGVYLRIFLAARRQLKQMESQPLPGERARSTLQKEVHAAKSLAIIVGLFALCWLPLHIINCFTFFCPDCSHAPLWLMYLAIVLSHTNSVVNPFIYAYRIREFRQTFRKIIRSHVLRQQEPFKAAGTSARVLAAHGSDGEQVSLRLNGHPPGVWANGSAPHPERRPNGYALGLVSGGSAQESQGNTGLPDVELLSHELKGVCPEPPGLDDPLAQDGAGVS
Sequence of Mu-type opioid receptor (P35372 whole entry): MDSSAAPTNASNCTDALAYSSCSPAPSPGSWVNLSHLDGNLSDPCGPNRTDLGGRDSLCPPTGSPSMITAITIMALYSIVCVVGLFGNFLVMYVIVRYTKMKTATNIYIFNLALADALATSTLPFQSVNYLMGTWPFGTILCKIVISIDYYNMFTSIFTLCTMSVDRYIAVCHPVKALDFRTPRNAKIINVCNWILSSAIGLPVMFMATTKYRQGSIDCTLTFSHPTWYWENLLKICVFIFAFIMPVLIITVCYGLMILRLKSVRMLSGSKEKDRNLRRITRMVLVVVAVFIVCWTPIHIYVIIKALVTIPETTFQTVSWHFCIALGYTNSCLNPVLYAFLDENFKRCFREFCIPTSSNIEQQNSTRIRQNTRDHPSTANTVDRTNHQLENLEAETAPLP

As for `CN(C/C=C/c1ccccc1)Cc1cccc2ccccc12` [NAFTIFINE], the AC50 at Adenosine receptor A2a is above 30 µM; in [1], above 10 µM; in assay [2] it was above 10 µM; on Melanocortin receptor 3, above 30 µM; in assay [3] it was above 30 µM; in [4], above 30 µM.

For `CC(=O)N[C@H]1[C@H]([C@H](O)[C@H](O)CO)OC(C(=O)O)=C[C@@H]1N=C(N)N` [ZANAMIVIR], the AC50 was above 30 µM at Adenosine receptor A2a; above 10 µM in [1]; above 30 µM in assay [2]; above 30 µM on Melanocortin receptor 3; above 30 µM in assay [3]; above 30 µM in assay [4].

For `COc1ccc2c(c1)OC(C)(C)C(c1ccccc1)C2c1ccc(OCCN2CCCC2)cc1` (stereo unspecified) [ORMELOXIFENE], the concentration at half-maximal activity (AC50) on Acetylcholinesterase was above 30 µM; in [5] it was 9.91 µM; in assay [6], above 30 µM; in assay [7] it was above 30 µM; at Mu-type opioid receptor, 11.2 µM; in assay [8], 3 µM.

`COc1ccc(-c2cc(=O)c3c(O)cc(O[C@@H]4O[C@H](CO[C@@H]5O[C@@H](C)[C@H](O)[C@@H](O)[C@H]5O)[C@@H](O)[C@H](O)[C@H]4O)cc3o2)cc1O` [DIOSMIN]: the AC50 (on Acetylcholinesterase; in [9]; in assay [5]; in assay [6]; in assay [7]; at Mu-type opioid receptor) was above 30 µM each time. The AC50 in assay [8] was above 30 µM.

Turning to `CCCC(=O)N1CCCN(c2nc(N)c3cc(OC)c(OC)cc3n2)CC1` [BUNAZOSIN], the AC50 (on Adenosine receptor A2a; in [1]; in assay [2]; on Melanocortin receptor 3; in assay [3]; in assay [4]) was above 30 µM in each case.

`CN(Cc1cc(Br)cc(Br)c1N)C1CCCCC1` [BROMHEXINE]: the AC50 (on Acetylcholinesterase; in assay [9]; in assay [5]; in [6]; in assay [7]; at Mu-type opioid receptor) was above 30 µM each time. Moreover, half-maximal activity in assay [8] (AC50) was put at 12.3 µM.

`CC(C)(N)Cc1ccc(Cl)cc1` [CHLORPHENTERMINE]: the AC50 on Adenosine receptor A2a was above 30 µM; in assay [1], above 10 µM; in [2] it was above 10 µM; on Melanocortin receptor 3, above 30 µM; in [3], above 30 µM; in [4], above 30 µM.

As for `O=P(O)(O)C(O)(Cc1cccnc1)P(=O)(O)O` [RISEDRONIC ACID], the AC50 at Adenosine receptor A2a was above 30 µM; in [1], above 30 µM; in [2], above 30 µM; on Melanocortin receptor 3 it was above 30 µM; in [3], above 30 µM; in assay [4], 7.14 µM.

Turning to `CC(C(O)c1ccc(O)cc1)N1CCC(Cc2ccccc2)CC1` (stereo unspecified) [IFENPRODIL], the AC50 (at Adenosine receptor A2a; in assay [1]; in assay [2]; on Melanocortin receptor 3; in assay [3]; in assay [4]) was above 30 µM throughout.

In the case of `CC(C)NCC1CCc2cc(CO)c([N+](=O)[O-])cc2N1` (stereo unspecified) [OXAMNIQUINE], the half-maximal activity concentration (AC50) was above 10 µM at Adenosine receptor A2a; above 10 µM in assay [1]; above 10 µM in [2]; above 10 µM at Melanocortin receptor 3; above 30 µM in assay [3]; above 30 µM in assay [4].

On to `CN(C)CCCN1c2ccccc2Sc2ccccc21` [PROMAZINE], for which the AC50 is above 30 µM at Adenosine receptor A2a; above 10 µM in assay [1]; above 10 µM in [2]; above 30 µM on Melanocortin receptor 3; above 10 µM in assay [3]; 15 µM in [4].

As for `CC(=O)N(CC(O)CO)c1c(I)c(C(=O)NCC(O)CO)c(I)c(C(=O)NCC(O)CO)c1I` (stereo unspecified) [IOHEXOL], the AC50 at Adenosine receptor A2a is above 30 µM; in assay [1], above 10 µM; in assay [2] it was above 10 µM; at Melanocortin receptor 3 it was above 30 µM; in assay [3], above 30 µM; in assay [4] it was above 30 µM.

As to `CN(CCCN1c2ccccc2CCc2ccccc21)CC(=O)c1ccc(Cl)cc1` [LOFEPRAMINE], the concentration at half-maximal activity (AC50) at Adenosine receptor A2a was above 30 µM; in [1], above 30 µM; in assay [2] it was above 30 µM; at Melanocortin receptor 3, above 30 µM; in assay [3] it was 28 µM; in assay [4] it was above 30 µM.

For `C[C@@H]1C[C@H]2[C@@H]3CCC4=CC(=O)C=C[C@]4(C)[C@@]3(F)[C@@H](O)C[C@]2(C)[C@H]1C(=O)CO` [DESOXIMETASONE], the half-maximal activity concentration (AC50) (on Acetylcholinesterase; in assay [9]; in assay [5]; in assay [6]; in [7]; at Mu-type opioid receptor) was above 30 µM throughout. In [8], this molecule registered an AC50 above 30 µM.

For `C[N+](C)(C)CC(=O)O` [BETAINE], the half-maximal activity concentration (AC50) (at Adenosine receptor A2a; in [1]; in [2]; at Melanocortin receptor 3; in [3]; in [4]) was above 30 µM each time.

As for `CN(C)[C@@H]1C(O)=C(C(N)=O)C(=O)[C@@]2(O)C(O)=C3C(=O)c4c(O)ccc(Cl)c4[C@@H](O)[C@H]3C[C@@H]12` [DEMECLOCYCLINE], the AC50 was above 10 µM on Adenosine receptor A2a; above 10 µM in assay [1]; above 10 µM in assay [2]; above 10 µM at Melanocortin receptor 3; above 30 µM in [3]; above 30 µM in assay [4].

Regarding `N[C@@H](CSCC(=O)O)C(=O)O` [CARBOCYSTEINE], the AC50 at Adenosine receptor A2a is above 30 µM; in assay [1], above 30 µM; in assay [2] it was above 30 µM; at Melanocortin receptor 3, above 30 µM; in [3] it was above 10 µM; in assay [4], above 30 µM.

As to `CC(=O)OC(C)C[N+](C)(C)C` (stereo unspecified) [METHACHOLINE], the concentration at half-maximal activity (AC50) (at Acetylcholinesterase; in [9]; in assay [5]; in assay [6]; in assay [7]; at Mu-type opioid receptor) was above 30 µM throughout. Also, the AC50 in assay [8] is above 30 µM.

Regarding `NS(=O)(=O)c1cc(Cl)c(Cl)c(S(N)(=O)=O)c1` [DICHLORPHENAMIDE], the AC50 at Adenosine receptor A2a is above 10 µM; in assay [1] it was above 10 µM; in assay [2] it was above 10 µM; at Melanocortin receptor 3 it was above 10 µM; in [3], above 30 µM; in assay [4], above 30 µM.

For `NS(=O)(=O)c1cc(-c2nnn[nH]2)c(NCc2cccs2)cc1Cl` [AZOSEMIDE], the AC50 on Adenosine receptor A2a is above 30 µM; in [1] it was above 30 µM; in assay [2], above 30 µM; at Melanocortin receptor 3 it was above 30 µM; in assay [3], 7.8 µM; in [4], 19 µM.

For `C=C1C[C@@H]2[C@H](CC[C@]3(C)C(=O)CC[C@@H]23)[C@@]2(C)C=CC(=O)C=C12` [EXEMESTANE], the AC50 is above 30 µM on Adenosine receptor A2a; above 10 µM in assay [1]; above 10 µM in assay [2]; above 30 µM on Melanocortin receptor 3; above 30 µM in [3]; above 30 µM in [4].

Regarding `C[N+](C)(C)CCOC(N)=O` [CARBAMOYLCHOLINE], the concentration at half-maximal activity (AC50) on Adenosine receptor A2a was above 10 µM; in [1], above 30 µM; in assay [2], above 30 µM; at Melanocortin receptor 3 it was above 10 µM; in assay [3], above 30 µM; in assay [4], above 30 µM.
